This passage reports T/C results from PubChem BioAssay AID330 (DTP/NCI, 2004).

Values joined by “and” are separate entries in the source; they are usually repeats but may differ in a detail not shown here. Equal values may be shown once. Toxic doses and inconclusive results are not listed. Square brackets hold non-standard residues; d marks the D form. Peptide text beside a SMILES is read from it. * marks the point of attachment. Cbz = O=C(OCc1ccccc1)*; Dha = C=C(N)C(=O)O

The test system of this assay is P388 leukemia ip, CD2F1 mice, survival T/C. The assay can be described thus: NCI In Vivo Anticancer Drug Screen. Data for tumor model P388 Leukemia (intraperitoneal) in CD2F1 (CDF1) mice. The note with it: endpoint: median survival time, higher = longer survival. The procedure, abridged:
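Mice carrying the transplanted tumor received test compound or vehicle. Survival was recorded in each group, and the value is the treated-group measurement divided by that of the vehicle-treated control group.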

Where [1] appears, read: dose: 25.0 mg/kg/injection, schedule: Q01DX009 (ip), vehicle: saline.
The mark [2] stands for this setting: dose: 50.0 mg/kg/injection, schedule: Q01DX009 (ip), vehicle: saline.
Setting [3] is: dose: 100.0 mg/kg/injection, schedule: Q01DX009 (ip), vehicle: saline.
The mark [4] stands for this setting: dose: 50.0 mg/kg/injection, schedule: Q01DX009 (ip), vehicle: Klucel (hydroxypropylcellulose) (HPC).
Setting [5] is: dose: 100.0 mg/kg/injection, schedule: Q01DX009 (ip), vehicle: Klucel (hydroxypropylcellulose) (HPC).
[6] abbreviates: dose: 200.0 mg/kg/injection, schedule: Q01DX009 (ip), vehicle: Klucel (hydroxypropylcellulose) (HPC).
[7] abbreviates: dose: 60.0 mg/kg/injection, schedule: Q01DX005 (ip), vehicle: saline with Tween-80.
Setting [8] is: dose: 120.0 mg/kg/injection, schedule: Q01DX005 (ip), vehicle: saline with Tween-80.
[9] abbreviates: dose: 240.0 mg/kg/injection, schedule: Q01DX005 (ip), vehicle: saline with Tween-80.
Where [10] appears, read: dose: 25.0 mg/kg/injection, schedule: Q01DX009 (ip), vehicle: Klucel (hydroxypropylcellulose) (HPC).
The mark [11] stands for this setting: dose: 25.0 mg/kg/injection, schedule: Q01DX005 (ip), vehicle: Klucel (hydroxypropylcellulose) (HPC).
Setting [12] is: dose: 50.0 mg/kg/injection, schedule: Q01DX005 (ip), vehicle: Klucel (hydroxypropylcellulose) (HPC).
The mark [13] stands for this setting: dose: 100.0 mg/kg/injection, schedule: Q01DX005 (ip), vehicle: Klucel (hydroxypropylcellulose) (HPC).
Setting [14] is: dose: 200.0 mg/kg/injection, schedule: Q01DX009 (ip), vehicle: saline.
The mark [15] stands for this setting: dose: 100.0 mg/kg/injection, schedule: Q04DX002 (ip), vehicle: saline with Tween-80.
Setting [16] is: dose: 200.0 mg/kg/injection, schedule: Q04DX002 (ip), vehicle: saline with Tween-80.
The mark [17] stands for this setting: dose: 50.0 mg/kg/injection, schedule: Q01DX005 (ip), vehicle: saline with Tween-80.
[18] abbreviates: dose: 100.0 mg/kg/injection, schedule: Q01DX005 (ip), vehicle: saline with Tween-80.
Where [19] appears, read: dose: 200.0 mg/kg/injection, schedule: Q01DX005 (ip), vehicle: saline with Tween-80.

With `CCn1cnc2c(SC)ncnc21`, the T/C runs as follows: (dose: 12.5 mg/kg/injection, schedule: Q01DX009 (ip), vehicle: saline) 100 % of control; under setting [1], 100 % of control; under setting [2], 95 % of control; (dose: 100.0 mg/kg/injection, schedule: Q04DX003 (ip), vehicle: other) 100 % of control.
In the case of `O=[N+]([O-])c1ccc(Sc2nc3ccccc3[nH]2)nc1`, the T/C by setting is: (dose: 50.0 mg/kg/injection, schedule: Q01DX009 (ip), vehicle: suspension in saline) 100 % of control; (dose: 100.0 mg/kg/injection, schedule: Q01DX009 (ip), vehicle: suspension in saline) 100 % of control; (dose: 200.0 mg/kg/injection, schedule: Q01DX009 (ip), vehicle: suspension in saline) 99 % of control.
On to `O=S(=O)(O)C(I)S(=O)(=O)O`, for which the T/C under setting [2] was 91 % of control and the T/C under setting [3] was 94 % of control.
For `C/C(=N/N(C)C)c1ccncc1`, the T/C reads like this: under setting [4], 104 % of control; under setting [5], 107 % of control; under setting [6], 113 % of control.
`N#Cc1c(Cl)c(Cc2ccccc2)c(Cl)n2c1nc1ccccc12`: the T/C by setting is: under setting [7], 100 % of control; under setting [8], 108 % of control; under setting [9], 99 % of control.
As to `CCOC(=O)c1ccc(NC(=O)Nc2nc3ccccc3s2)cc1`, the T/C (dose: 25.0 mg/kg/injection, schedule: Q01DX009 (ip), vehicle: distilled water + Tween-80) is 97 % of control; the T/C (dose: 50.0 mg/kg/injection, schedule: Q01DX009 (ip), vehicle: distilled water + Tween-80) is 97 % of control; the T/C (dose: 100.0 mg/kg/injection, schedule: Q01DX009 (ip), vehicle: distilled water + Tween-80) is 90 % of control; the T/C (dose: 200.0 mg/kg/injection, schedule: Q01DX009 (ip), vehicle: distilled water + Tween-80) is 90 % of control; the T/C (dose: 400.0 mg/kg/injection, schedule: Q01DX009 (ip), vehicle: distilled water + Tween-80) was 90 % of control.
For the molecule `Oc1cc2c(cc1C(Nc1ncccn1)c1ccc(F)cc1)OCO2` (stereo unspecified), the T/C is 99 % of control under setting [7], 91 % of control under setting [8] and 92 % of control under setting [9].
For the molecule `CNC(=O)OCc1c(COC(=O)NC)c(C)n(-c2ccc(OC)cc2)c1C`, the T/C was 152 % of control (dose: 12.5 mg/kg/injection, schedule: Q01DX009 (ip), vehicle: Klucel (hydroxypropylcellulose) (HPC)); 153 % of control under setting [10]; 171 % of control under setting [4].
For the molecule `O=C(/C=C/C=C/c1ccccc1)CCc1ccccc1`, the T/C was 95 % of control under setting [11]; 101 % of control under setting [12]; 100 % of control under setting [13]; 92 % of control (dose: 200.0 mg/kg/injection, schedule: Q01DX005 (ip), vehicle: Klucel (hydroxypropylcellulose) (HPC)).
Consider `CCCCCCCCCCCC(=O)C(=O)c1ccc(O)cc1O`, for which the T/C under setting [4] was 110 % of control, the T/C under setting [5] is 107 % of control and the T/C under setting [6] is 109 % of control.
Take `N#Cc1cnn(-c2ccc([N+](=O)[O-])cc2[N+](=O)[O-])c1N`: the T/C under setting [2] was 101 % of control, the T/C under setting [3] was 100 % of control and the T/C under setting [14] was 108 % of control.
`CC1c2ccccc2-c2ccccc2N1C(=O)c1cccc(C(=O)N2c3ccccc3-c3ccccc3C2C)n1` (stereo unspecified): the T/C under setting [7] is 93 % of control, the T/C under setting [8] is 98 % of control and the T/C under setting [9] is 90 % of control.
As for `CSCc1cc(C)ccc1NC(C)=O`, the T/C by setting is: (dose: 50.0 mg/kg/injection, schedule: Q04DX002 (ip), vehicle: saline with Tween-80) 98 % of control; (dose: 100.0 mg/kg/injection, schedule: Q01DX001 (ip), vehicle: saline with Tween-80) 99 % of control; under setting [15], 98 % of control; (dose: 200.0 mg/kg/injection, schedule: Q01DX001 (ip), vehicle: saline with Tween-80) 99 % of control; under setting [16], 102 % of control; (dose: 400.0 mg/kg/injection, schedule: Q01DX001 (ip), vehicle: saline with Tween-80) 100 % of control.
On to `C=C(NC(=O)C(C)NC(=O)OCc1ccccc1)C(=O)N1CCCC1C(=O)NC(C)C(=O)NC` (stereo unspecified) (Cbz-A[Dha]PA-NHMe; configuration not given here), for which the T/C was 111 % of control under setting [1], 100 % of control under setting [2] and 96 % of control under setting [3].
As for `CC1(C)CC(O)(Cc2ccccc2)C(=O)c2ccccc21` (stereo unspecified), the T/C was 96 % of control under setting [10]; 95 % of control under setting [4]; 98 % of control under setting [5]; 98 % of control under setting [6]; 86 % of control (dose: 400.0 mg/kg/injection, schedule: Q01DX009 (ip), vehicle: Klucel (hydroxypropylcellulose) (HPC)).
For the molecule `CN(C)c1ccc(/C=N/N=C2\C(=O)Nc3c(Cl)cc(Cl)cc32)cc1`, the T/C (dose: 50.0 mg/kg/injection, schedule: Q01DX009 (ip), vehicle: saline with Tween-80) was 95 % of control; the T/C (dose: 100.0 mg/kg/injection, schedule: Q01DX009 (ip), vehicle: saline with Tween-80) was 97 % of control; the T/C (dose: 200.0 mg/kg/injection, schedule: Q01DX009 (ip), vehicle: saline with Tween-80) was 95 % of control.
Turning to `COC(=O)C(=O)c1c(-c2ccc(O)c(OC)c2)[nH]c2[nH]n(-c3ccccc3)c(=O)c2c1=O`, the T/C runs as follows: under setting [7], 100 % of control; under setting [8], 109 % of control; under setting [9], 88 % of control.
As to `Cc1cc(C)nc(NS(=O)(=O)c2ccc(N=Cc3c4ccccc4nc4cc(Cl)ccc34)cc2)n1`, the T/C is, setting by setting: under setting [17], 93 % of control; under setting [18], 93 % of control; under setting [19], 93 % of control.
As to `CCCCCCCCCCCCn1ccnc1`, the T/C is 102 % of control (dose: 100.0 mg/kg/injection, schedule: Q04DX003 (ip), vehicle: saline with Tween-80) and 97 % of control (dose: 200.0 mg/kg/injection, schedule: Q04DX003 (ip), vehicle: saline with Tween-80).
Take `CCOC(=O)CCC(=O)Nc1ccccc1C#N`: the T/C is, setting by setting: under setting [2], 102 % of control; under setting [3], 93 % of control; under setting [14], 102 % of control.
Turning to `O=C1CN(c2ccc(Cl)cc2)C(=O)CN1/N=C/c1ccc(O)c(O)c1`, the T/C is 99 % of control under setting [17] and 93 % of control under setting [18].
`CCOC(=Nc1ccc(OCC)cc1)SC(c1ccccc1)(c1ccccc1)c1ccccc1`: the T/C under setting [17] was 104 % of control, the T/C under setting [18] was 98 % of control and the T/C under setting [19] was 91 % of control.
`Cc1cccc(N=Nc2c(C)nn(C(N)=S)c2C)c1C`: the T/C was 90 % of control under setting [11], 94 % of control under setting [12] and 106 % of control under setting [13].
For `NC(=O)c1csc(-c2ccc(CO)o2)n1`, the T/C is, setting by setting: under setting [17], 95 % of control; under setting [18], 86 % of control.
Take `O/N=C(/CN1CCOCC1)c1ccccc1`: the T/C was 105 % of control under setting [4], 100 % of control under setting [5] and 102 % of control under setting [6].
With `CC(=O)OC1C(O)C(C)OC(OC(=O)C2CCC3C(C2)OC2(CC(OC(=O)/C=C/c4ccccc4)C(C)CO2)C32CO2)C1OC1OC(C)C(O)C(O)C1O` (stereo unspecified), the T/C was 100 % of control and 118 % of control (dose: 2.0 mg/kg/injection, schedule: Q01DX005 (ip), vehicle: saline + alcohol); 119 % of control (dose: 4.0 mg/kg/injection, schedule: Q01DX005 (ip), vehicle: saline + alcohol); 151 % of control (dose: 16.0 mg/kg/injection, schedule: Q01DX005 (ip), vehicle: saline + alcohol); 154 % of control (dose: 32.0 mg/kg/injection, schedule: Q01DX005 (ip), vehicle: saline + alcohol); 163 % of control (dose: 64.0 mg/kg/injection, schedule: Q01DX005 (ip), vehicle: saline + alcohol).
As to `CC(C)c1cccc(C(C)C)c1NC(=O)Nc1ccc(Cl)cc1Cl`, the T/C under setting [7] was 114 % of control, the T/C under setting [8] was 104 % of control and the T/C under setting [9] was 116 % of control.
For `O=C(O)c1cn2ccccc2c1[N+](=O)[O-]`, the T/C was 94 % of control under setting [15]; 92 % of control under setting [16]; 96 % of control (dose: 400.0 mg/kg/injection, schedule: Q04DX002 (ip), vehicle: saline with Tween-80).
